Calls of active or inactive are those of the source.
Key:
[1] = target: T1, Endoribonuclease toxin MazF (Escherichia coli K-12, UniProt P0AE70); assay: activation of MazEF endoribonuclease cleavage – biochemical, fluorescence, single-stranded RNA substrate, uHTS hits, dose response (AID 588481); format: functional
T1 sequence (P0AE70 whole entry): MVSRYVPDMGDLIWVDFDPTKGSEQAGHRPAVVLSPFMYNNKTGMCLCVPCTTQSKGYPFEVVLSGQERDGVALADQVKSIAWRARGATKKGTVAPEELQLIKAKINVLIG

[2] = target: T1, Endoribonuclease toxin MazF; assay: substrate-only fluorescence increase artefacts – biochemical, single-stranded RNase substrate, counter-screen for MazEF activator project, dose response (AID 588502); format: functional
P388/ADR = assay: cells; format: functional; conditions: Mus musculus
P388 = assay: cells; format: functional; conditions: Mus musculus
[3] = target: Dual specificity tyrosine-phosphorylation-regulated kinase 1A (Rattus norvegicus, UniProt Q63470); format: biochemical, Homo sapiens
SN12K1 = assay: cells; format: functional; conditions: Homo sapiens
Protein Wnt-3a = Protein Wnt-3a (Mus musculus, UniProt P27467); assay: antagonism of Wnt3a pathway luciferase reporter – Wnt-LIGHT cells, luminescence, selectivity assay for Gli-SUFU antagonist project, dose response (AID 651570); format: functional; conditions: read-out: IC50_Mean;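 note: Wnt-LIGHT reporter cells stimulated with conditioned medium from Wnt3a-producing cells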
Cytochrome P450 3A4 = Cytochrome P450 3A4 (Homo sapiens, UniProt P08684);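 note: CYP3A4 tested as one member of a cytochrome P450 panel screen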
Cytochrome P450 2D6 = Cytochrome P450 2D6 (Homo sapiens, UniProt P10635);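 note: CYP2D6 member of a cytochrome P450 panel assay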
[4] = target: T2, Carboxy-terminal domain RNA polymerase II polypeptide A small phosphatase 1 (Homo sapiens, UniProt Q9GZU7); assay: CTDSP1 inhibitors, concentration-response, biochemical, absorbance readout, ultra-high-throughput screen actives (AID 540297); format: functional
T2 sequence (Q9GZU7 whole entry): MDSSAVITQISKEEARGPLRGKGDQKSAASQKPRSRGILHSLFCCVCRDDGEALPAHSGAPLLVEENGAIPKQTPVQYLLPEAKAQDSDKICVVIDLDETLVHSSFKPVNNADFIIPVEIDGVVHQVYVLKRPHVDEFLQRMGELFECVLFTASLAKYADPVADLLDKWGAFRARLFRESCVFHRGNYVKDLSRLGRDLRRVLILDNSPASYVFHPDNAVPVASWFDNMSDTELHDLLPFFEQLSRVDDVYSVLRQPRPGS

HEK293 = assay: EBV LMP1 TES2 canonical NF-kB signalling blockers – cell-based, HEK293, luciferase, cherry-pick, dose response (AID 588343); format: functional; conditions: Homo sapiens
INS1 = assay: INS-1E survival protection against cytokine death – cell-based, luminescence, retest, dose response (AID 449756); format: functional; conditions: Rattus norvegicus;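 note: cell death triggered by IL-1 beta plus TNF-alpha plus IFN-gamma mixture; protective hits raise ATP signal compared with cytokine alone wells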
[5] = Luminescence Cell-Based Dose Retest to Confirm Inhibitors of Cancer Stem Cells. [Related pubchem assays (depositor defined):AID2717, AID2721]; format: functional; conditions: Homo sapiens
Melanocortin receptor 4 = Melanocortin receptor 4 (Homo sapiens, UniProt P32245); format: functional, cell-based;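 note: Cell-based assay with luminescence read-out, confirmatory dose-response testing for agonist activity of biased ligands at MC4R; human U2OS cells with tagged receptor and beta-arrestin; potency of agonists that increase receptor coupling to beta-arrestin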
[6] = target: DNA dC->dU-editing enzyme APOBEC-3G (Homo sapiens, UniProt Q9HC16); assay: Dose Response confirmation of small molecule APOBEC3G DNA Deaminase Inhibitors via a fluorescence-based single-stranded DNA deaminase assay. [Related pubchem assays (depositor defined):AID493012, AID493028]; format: functional
[7] = target: DNA dC->dU-editing enzyme APOBEC-3A (Homo sapiens, UniProt P31941); assay: A3A deaminase inhibition for selectivity – biochemical, dose response (AID 504722); format: functional
[8] = target: T3, Replicative DNA helicase DnaB (Mycobacterium tuberculosis, UniProt P9WMR3); assay: DnaB intein splicing inhibitors, dose response, biochemical, cell-free fluorescence (AID 449749); format: functional
T3 sequence (P9WMR3 whole entry): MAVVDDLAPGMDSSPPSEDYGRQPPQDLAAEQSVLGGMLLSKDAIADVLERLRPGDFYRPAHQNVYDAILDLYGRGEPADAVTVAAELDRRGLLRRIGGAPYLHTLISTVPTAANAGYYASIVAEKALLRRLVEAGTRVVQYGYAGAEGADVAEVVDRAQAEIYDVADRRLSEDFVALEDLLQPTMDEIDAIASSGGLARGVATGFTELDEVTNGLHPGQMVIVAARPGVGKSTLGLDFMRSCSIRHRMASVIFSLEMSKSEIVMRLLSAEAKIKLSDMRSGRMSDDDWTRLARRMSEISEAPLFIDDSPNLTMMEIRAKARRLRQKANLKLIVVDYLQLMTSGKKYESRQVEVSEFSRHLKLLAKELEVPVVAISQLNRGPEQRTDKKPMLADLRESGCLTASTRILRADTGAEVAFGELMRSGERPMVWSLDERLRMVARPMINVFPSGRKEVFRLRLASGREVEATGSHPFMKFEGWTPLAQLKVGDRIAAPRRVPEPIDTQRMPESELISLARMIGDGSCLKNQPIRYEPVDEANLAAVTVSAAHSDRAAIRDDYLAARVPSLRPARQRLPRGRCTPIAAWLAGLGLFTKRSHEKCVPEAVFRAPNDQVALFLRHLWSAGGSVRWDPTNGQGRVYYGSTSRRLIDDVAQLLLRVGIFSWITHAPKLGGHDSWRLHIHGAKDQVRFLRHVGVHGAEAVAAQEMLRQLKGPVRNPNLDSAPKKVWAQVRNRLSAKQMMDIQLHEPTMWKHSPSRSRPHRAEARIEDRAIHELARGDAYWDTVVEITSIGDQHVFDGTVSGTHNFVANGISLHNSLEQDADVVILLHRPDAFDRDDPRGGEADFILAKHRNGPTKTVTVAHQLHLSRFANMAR

Protein RecA = target: T4, Protein RecA (Mycobacterium tuberculosis, UniProt P9WHJ3); assay: Fluorescence Cell-Free Homogeneous Dose Retest to Identify Inhibitors of RecA-Intein Splicing Activity. [Related pubchem assays (depositor defined):AID2097, AID2223, AID489010, AID492950]; format: functional
T4 sequence (P9WHJ3 whole entry): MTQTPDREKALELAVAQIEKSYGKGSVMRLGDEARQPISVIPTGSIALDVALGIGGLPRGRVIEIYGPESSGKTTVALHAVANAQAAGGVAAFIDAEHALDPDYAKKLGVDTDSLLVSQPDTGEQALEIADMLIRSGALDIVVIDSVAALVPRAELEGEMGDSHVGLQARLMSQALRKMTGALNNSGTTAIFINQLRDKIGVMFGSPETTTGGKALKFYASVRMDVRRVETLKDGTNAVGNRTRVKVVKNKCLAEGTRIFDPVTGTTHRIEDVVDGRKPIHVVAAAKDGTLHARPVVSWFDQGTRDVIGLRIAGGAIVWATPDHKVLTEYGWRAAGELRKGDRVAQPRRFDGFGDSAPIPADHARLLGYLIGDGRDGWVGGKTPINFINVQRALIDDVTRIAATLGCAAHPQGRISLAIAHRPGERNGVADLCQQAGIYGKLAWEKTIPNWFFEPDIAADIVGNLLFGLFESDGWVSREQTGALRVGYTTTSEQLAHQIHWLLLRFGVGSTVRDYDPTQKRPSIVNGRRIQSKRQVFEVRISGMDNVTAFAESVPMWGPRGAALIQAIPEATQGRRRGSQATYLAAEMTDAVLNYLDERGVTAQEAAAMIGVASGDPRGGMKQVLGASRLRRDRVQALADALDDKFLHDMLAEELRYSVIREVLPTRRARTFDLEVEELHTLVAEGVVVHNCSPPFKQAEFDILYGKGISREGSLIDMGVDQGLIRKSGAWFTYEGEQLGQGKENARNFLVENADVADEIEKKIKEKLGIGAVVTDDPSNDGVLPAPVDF

Escherichia coli = assay: microbe, parasite or virus in culture
[9] = non-specific 3'UTR reporter inhibition in Clone20-Shn3RL – cell-based, Renilla luciferase, cherry-picked, counter-screen for Shn3 inhibitor project, dose response (AID 624133); format: functional
[10] = loss of viability in HepG2 cells – cell-based, CellTiter-Glo, cherry-picked, cytotoxicity control for Shn3 inhibitor project, dose response (AID 624134); format: functional
[11] = reduction of Shn3 3'UTR-driven luciferase in osteoblasts – cell-based, Clone20 osteoblasts, firefly luciferase, cherry-picked, dose response (AID 624132); format: functional;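 note: firefly luciferase luminescence from reporter carrying the Shn3 3'UTR in osteoblasts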
[12] = viability of HCT116 lacking mutant beta-catenin – cell-based, human colon tumor, dose response (AID 1045); format: functional;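 note: HCT116 colon tumor cells with beta catenin knocked out; cells exposed to compound for 60 hours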
Troponin, cardiac muscle = Troponin, cardiac muscle (Homo sapiens, UniProt P19429+P45379+P63316); assay: Fluorescence-based biochemical high throughput dose response assay for activators of the calcium sensitivity of cardiac Regulated Thin Filaments (RTF). [Related pubchem assays (depositor defined):AID493008, AID493018, AID504382, AID504383]; format: protein-complex assay
[13] = viability of PTEN-deleted HCT116 cells – cell-based, HCT116 PTEN knockout, dose response (AID 1047); format: functional;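 note: HCT116 colon tumor cells with PTEN knocked out; cells exposed to compound for 60 hours before readout; potency for loss of cell viability measured by luminescence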
[14] = target: T5, Short transient receptor potential channel 4 (Mus musculus, UniProt Q9QUQ5); assay: block of DAMGO-driven TRPC4 calcium entry – cell-based, HEK293 TRPC4/mu-opioid, Fluo-4 calcium, dose response (AID 434942); format: functional;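 note: potency of inhibitors blocking the TRPC4 calcium response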
T5 sequence (Q9QUQ5 whole entry): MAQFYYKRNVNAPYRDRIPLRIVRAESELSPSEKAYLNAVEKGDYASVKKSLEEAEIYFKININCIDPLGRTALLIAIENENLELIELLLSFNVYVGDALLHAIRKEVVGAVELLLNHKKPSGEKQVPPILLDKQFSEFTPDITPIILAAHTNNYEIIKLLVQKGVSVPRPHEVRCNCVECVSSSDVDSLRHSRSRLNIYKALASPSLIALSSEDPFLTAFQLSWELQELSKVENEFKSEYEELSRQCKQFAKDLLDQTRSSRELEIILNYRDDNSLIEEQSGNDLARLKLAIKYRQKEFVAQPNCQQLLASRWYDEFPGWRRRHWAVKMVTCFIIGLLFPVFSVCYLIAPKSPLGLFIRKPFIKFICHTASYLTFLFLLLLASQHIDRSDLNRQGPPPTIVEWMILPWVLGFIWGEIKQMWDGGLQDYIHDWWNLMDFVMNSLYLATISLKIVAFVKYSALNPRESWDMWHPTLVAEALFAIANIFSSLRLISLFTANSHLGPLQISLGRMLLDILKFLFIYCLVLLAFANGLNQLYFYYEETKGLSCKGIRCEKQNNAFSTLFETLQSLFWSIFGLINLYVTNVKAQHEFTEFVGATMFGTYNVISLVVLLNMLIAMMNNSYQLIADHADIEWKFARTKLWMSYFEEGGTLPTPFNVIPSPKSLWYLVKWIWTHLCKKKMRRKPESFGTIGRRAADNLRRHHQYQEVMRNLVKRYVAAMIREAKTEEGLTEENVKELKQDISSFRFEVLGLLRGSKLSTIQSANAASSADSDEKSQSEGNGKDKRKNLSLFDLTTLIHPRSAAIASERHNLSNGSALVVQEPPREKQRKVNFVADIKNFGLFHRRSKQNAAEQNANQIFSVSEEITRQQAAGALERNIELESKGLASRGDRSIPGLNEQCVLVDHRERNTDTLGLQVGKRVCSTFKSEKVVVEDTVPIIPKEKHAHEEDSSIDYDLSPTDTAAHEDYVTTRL

O=c1oc(/C=C/c2ccco2)nc2sc3c(c12)CCC3
EC50 [1]: > 99 µM (inactive) | EC50 [2]: > 99 µM (inactive)

O=C1C(O)=C(CC=C(Cl)Cl)C(=O)c2ccccc21
GI50 (P388/ADR): 1.6 µM (inactive) | GI50 (P388): 1.8 µM (inactive) | AC50 [3]: 4.87 µM (active) | GI50 (SN12K1): 1.11 µM (active)

COc1ccccc1-c1c(-c2ccc(O)cc2O)n[nH]c1C(F)(F)F
IC50 (Protein Wnt-3a): 2.07 µM (active)

O=C(C=C1SCCS1)/C=C/c1ccco1
AC50 (Cytochrome P450 3A4): 15.8 µM (inconclusive) | AC50 (Cytochrome P450 2D6): 17.8 µM (inconclusive) | IC50 [4]: 7.85 µM (active) | AC50 (HEK293): 10.8 µM (active)

O=C(NCc1ccco1)c1sc2ccccc2c1Cl
AC50 [3]: 7.39 µM (active)

Cc1sc2ncnc(N3CCN(S(=O)(=O)c4ccc(C(C)(C)C)cc4)CC3)c2c1C
AC50 (INS1): 3.23 µM (active) | IC50 (Protein Wnt-3a): 6.86 µM (active)

COc1ccc(O)c(-c2cc(-c3cccs3)[nH]n2)c1
AC50 [3]: 10.6 µM (active)

Cc1nn(-c2ccccc2)c(O)c1/C=N/c1ccc2[nH]c(O)nc2c1
EC50 [1]: > 99 µM (inactive) | EC50 [2]: > 99 µM (inactive)

COc1ccc(-c2sc3ccc(N4CCOCC4)cc3c2C#CC2(O)CCCCC2)cc1
AC50 [5]: 0.749 µM (active) | EC50 (Melanocortin receptor 4): > 89.2 µM (inactive)

COC(=O)CSc1ncnc2c1sc1nc3c(cc12)COC(C)(C)C3
AC50 (HEK293): 4.32 µM (active)

Sc1nnc(C2CCCCC2)n1/N=C/c1ccncc1
IC50 [6]: 7.27 µM (active) | IC50 [7]: > 100 µM (inactive) | AC50 (HEK293): 11.5 µM (active)

CC1CC(=O)N(c2ccc(NCc3ccc(Cl)cc3)c([N+](=O)[O-])c2)C1=O (stereo not given)
EC50 [1]: 96.1 µM (inactive) | EC50 [2]: > 99 µM (inactive)

CC(=O)c1ccc(-c2cccc(-c3nc4ccccn4c3NC3CCCCC3)c2)cc1
AC50 [8]: 0.377 µM (active) | EC50 (Protein RecA): 0.178 µM (active) | AC50 (Escherichia coli): 299 µM (active)

CN(Cc1nccs1)C(=O)c1cc(COc2cccc3cnccc23)on1
AC50 [9]: 1.2 µM (active) | IC50 (Protein Wnt-3a): 1.3 µM (active) | AC50 [10]: 48.5 µM (active) | AC50 [11]: 2.77 µM (active)

N#C/C(=C\c1ccc(-c2ccc(F)cc2)o1)C(=O)Nc1nc(-c2cccs2)cs1
EC50 [1]: > 99 µM (inactive) | EC50 [2]: 27.2 µM (inactive) | EC50 [12]: 25.6 µM (active) | EC50 (Troponin, cardiac muscle): > 71.5 µM (inactive) | EC50 [13]: 30 µM (active) | EC50 (Melanocortin receptor 4): > 89.2 µM (inactive)

CC(=O)Nc1cc(-c2cccc(C(=O)N(C)C)c2)cn2c(-c3ccc(F)c(Cl)c3)cnc12
EC50 (Melanocortin receptor 4): > 89.2 µM (inactive)

O=C1C(Cl)=C(NCCc2ccccc2)C(=O)N1CCc1ccccc1
EC50 [1]: > 99 µM (inactive) | EC50 [2]: > 99 µM (inactive)

Cc1cc(Nc2ccccc2)nc2cc(O)ccc12
EC50 [14]: 3.76 µM (active) | AC50 [3]: 4.44 µM (active)

CCN1CCN(Cc2ccc(NC(=O)c3ccc(C)c(NC(=O)c4nccn4C)c3)cc2C(F)(F)F)CC1
AC50 (HEK293): 1.56 µM (active)

COc1cccc(-c2cnc3c(NC(C)=O)cc(-c4ccc(C(=O)N5CCOCC5)cc4)cn23)c1
EC50 (Melanocortin receptor 4): > 89.2 µM (inactive)
